Results on 2 compounds are retold here after patent US8906432B2, “Compositions comprising an NFκB-inhibitor and a non-retinoid collagen promoter” (Johnson & Johnson Consumer Companies, Inc., priority 2009, dated 2014).

For one assay, the system named is Collagen 1A promoter. The assay is described as follows: COLLAGEN PROMOTER ASSAY (Collagen 1A promoter-luciferase reporter in H9C2 cells). In kind it is cell-based, rat. The following applies: 1 ug/ml of each active (on active basis), transfected H9C2 cells, 24 hours; for Percent Change Over Vehicle (collagen promotion): vehicle DMSO 0.01%. How it is done: Suitable non-retinoid collagen promoters may be determined, for example, using the COLLAGEN PROMOTER ASSAY. The COLLAGEN PROMOTER ASSAY is performed as follows. Rat cardiac myoblasts H9C2, which may be purchased from ATCC (Manassas, Va.), are used. Cultures are maintained in Dulbecco's modified Eagle's medium (DMEM, Invitrogen Life Technologies, Carlsbad, Calif.) supplemented with 10% fetal bovine serum, 2 mM glutamine, 100 units/ml penicillin, and 50 ug/ml streptomycin (Invitrogen life technologies, Carlsbad, Calif.). Cell cultures are transiently transfected with the Collagen 1A promoter-luciferase reporter construct, driving the firefly luciferase gene, which may obtained for example from PREMAS Biotech Pvt. Ltd (Haryana, India). In all transfections, a construct with the thymidine kinase promoter and the Renilla luciferase reporter gene (pRL-TK, Promega, Madison, Wis.) is included as an internal control. Cells grown in 48-well plates are transfected with 0.45 ug total DNA per well using Lipofectamine 2000 (Invitrogen life technologies, Carlsbad, Calif.). One day after transfection, cells are treated with agents at the indicated concentrations for approximately 24 hours before they are lysed for luciferase assays, using Dual-Luciferase Reporter System from Promega (Madison, Wis.), following manufacturer's protocol. The firefly luciferase activity is measured first (representing collagen promoter activity), followed by the renilla luciferase (internal control), using luminometer LMAX, from Molecular Devices (Sunnyvale, Calif.). The ratio of these two luciferase activities (RLU) is used to evaluate the activity of each promoter.
The COLLAGEN PROMOTER ASSAY was performed on the following compounds: Tanacetum parthenium (parthenolide-free feverfew extract from Integrated Botanical Technologies of Ossining, N.Y.) and 4-hexylresorcinol (Synovea HR, from Sytheon Ltd). The compounds were diluted in cell culture media (DMEM Media of Invitrogen, San Diego Calif.) to the concentration of “active” extract as indicated in Table 3 below. […]
Background: Reporter assays use an easily measured gene product as a stand-in for the process of interest.

For a further assay, the system named is NFκB. The assay is described as follows: NFκB-INHIBITION TEST (NF-kB gene reporter, TNFα-stimulated FB293 cells, luciferase). The assay is classed as cell-based. The following applies: Homo sapiens, 24 h; series of substituted resorcinols, each 10 ug/ml (Table 2); read-out: Percent NF-kB Inhibition. How it is done: The NFκB-INHIBITION TEST is conducted in the following manner. FB293 cells, a stable transfected human epithelial cell line containing the gene reporter for NF-kB are used. They may be obtained from, e.g., Panomics (Fremont, Calif.). FB293 are plated at a density of 5×10^4 cells/mL in a suitable medium, e.g., Dulbecco's modified Eagle's medium (DMEM) supplemented with 10% fetal bovine serum (Invitrogen, San Diego, Calif.). The FB293 cells are stimulated with 100 ng/mL of Tumor Necrosis Factor-α(TNFα, available from Sigma-Aldrich of St Louis, Mo.) in the presence of the test sample. Separately, a control sample is tested wherein no test sample is applied. Following a 24-hour incubation at 37° C. with 5% CO2, cells are lysed with 40 μl of reporter lysis buffer (Promega, Madison, Wis.). A […] aliquot of the lysate is assayed using a luciferase assay kit (Promega) and counted for 10 s in a Lmax luminometer (Molecular Devices, Sunnyvale, Calif.) with the data represented as the relative light unit/second. Percent NFκB Inhibition of the test sample is calculated as: NFκB Inhibition=[1−(Lsample/Lcontrol)]*100 where Lsample is the luminescence of the sample and Lcontrol is the luminescence of the control. […]

The inhibition is the share of the control response that was lost under treatment.

As to `CCCCCCc1ccc(O)cc1O` [4-Hexylresorcinol], the “Percent Change Over Vehicle (collagen promotion)” value with Collagen 1A promoter and in the assay with Collagen 1A promoter (listed as 4-hexylresorcinol) was −3% each time. For the same compound, in the assay with Collagen 1A promoter (vehicle control = 1.00), the “Collagen 1A Promoter Activity” value is 0.97 ± 0.17.
In the case of `CCCCCCCCCCCC1c2cc(c(O)cc2O)C(CCCCCCCCCCC)c2cc(c(O)cc2O)[C@H](CCCCCCCCCCC)c2cc(c(O)cc2O)[C@H](CCCCCCCCCCC)c2cc1c(O)cc2O` (stereo partly shown) [C-Undecylcalix[4]-resorcinarene], the inhibition at 10 µg/mL in the assay with NFκB stood at 4.87%.
